Assays:
AβOs [1] = assay: Western blot assay of AβOs formation in MC65 cells (6E10 antibody); type: cell-based, human; conditions: 10 μM, 24 hrs after removal of TC
Text: Inhibition of AβOs production by designed BMAOIs. […] The whole cell assay is a composite of not only Aβ oligomerization inhibition but also permeability, stability and other factors will validate the accessibility and function of our BMAOIs. MC65 is a human neuroblastoma cell line that conditionally expresses C99, the C-terminus fragment of APP using tetracycline (TC) as transgene suppressor.^38 Upon removal of TC, these cells can produce intracellular Aβ aggregates including small AβOs. […] All BMAOIs were first evaluated at a single concentration of 10 μM. Candidate compounds with inhibitory activities at this concentration were further evaluated in a dose-dependent manner in the following assays. […]
Western blot assay. […] Pellet was lysed by sonication in 1× lysis buffer (62.5 mM Tris base, pH6.8, 2% SDS, 50 mM DTT, 10% glycerol, 0.1% bromphenol blue, and […] each chymostatin, leupeptin, aprotinin, pepstatin, and soybean trypsin inhibitor) and protein level was determined using Coomassie Protein Assay Reagent (Pierce, Rockford, Ill.). […]

extracellular AβOs = assay: ML60 cell assay: ELISA for extracellular AβOs; type: cell-based, Chinese hamster; conditions: ML60 cells, 10 μM, 24 hrs
Experimental: Next, another cell line, ML60, was employed to evaluate the inhibition of AβOs production.
ML60 cell assay. Sandwich enzyme-linked immunoassays (ELISAs) for extracellular AβOs in ML60 cells were performed. ML60 cells (90% confluent) in 96-well plates were treated with test compounds (10 μM) at 37° C., 5% CO2 for 24 hrs. ML60 cells were centrifuged for 5 min at 6000 g, and supernatant media was collected for AβOs measurement by ELISA. The capture antibody 21F12 (to Aβ residues 33-42) was used for capturing both monomeric and oligomeric Aβ42 species. The detecting antibody was biotinylated 21F12B, and the combination of 21F12 and biotinylated 21F12B allows the detection of only AβOs. The 21F12 mAbs were coated at 10 mg/mL into 96-well immunoassay plates (Costar) at room temperature overnight. The plates were then aspirated and blocked with 0.25% human serum albumin in PBS buffer for 1 hr at room temperature. The plates were rehydrated with wash buffer (0.05% Tween 20 in TBS) before use. The samples were added to the plates and incubated at room temperature for 1 hr. The plates were washed 3× with wash buffer between each step of the assay. […] Reaction product was quantified using plate reader by measuring the difference in absorbance at 450 nm and 650 nm.

AβOs [2] = assay: Immunocytochemistry assay of AβOs in MC65 cells (A11 antibody); type: cell-based, human; conditions: 10 μM, 24 hrs after removal of TC
Experimental: MC65 cells were treated with the indicated compounds (10 μM) immediately after the removal of TC. After 24 hrs, the cells were fixed and immunofluorescently stained for AβOs, CM/LR, and nucleus and imaged with a Leica TCS-SP2 AOBS confocal laser scanning microscope. Five areas were examined.
Immunocytochemistry assay. MC65 cells were plated onto Lab-Tee chamber slides (1×10^4 cells/well). After 24 hrs incubation at 37° C. and 5% CO2, Opti-MEM was added (with or without TC) and followed by test compounds. MC65 cells were incubated for 24 hrs. MC65 cells were rinsed 3× with PBS and incubated with Alexa 488-conjugated CTX-B (10 ug/mL) for 15 min on ice. After rinsing once with ice-cold PBS, cells were fixed for 30 min with 4% paraformaldehyde. MC65 cells were permeabilized for 30 min with 0.1% Triton X 100. Then MC65 cells were stained with A11 rabbit antibody followed by anti-rabbit Alexa 568 (1:500). Finally MC65 cells were treated with DAPI (5 ug/mL) and mounted with Vectashield Mounting Media. Cell fluorescence was analyzed by a Leica TCS-SP2 AOBS confocal laser scanning microscope equipped with blue diode, Argon, and 3 HeNe (lasers as well as a spectrophotometer based detection system with variable detector windows) using excitation lines at 355 nm, 488 nm, and 568 nm for DAPI, Alexa 488-conjugated CTX-B, and Alexa Fluor 568 donkey anti-rabbit IgG. […]

[3] = tested on: intracellular oxidative stress; assay: DCFH-DA antioxidation assay in MC65 cells; type: cell-based, human; conditions: −TC, 24 hrs
in vitro = conditions: human, Caco-2
Experimental: Assessment of permeability and P-glycoprotein using Caco-2 cell model. […] To test whether 14 has the potential to reach the brain, we determined its permeability and transport directionality using the Caco-2 model.^48 Although the Caco-2 cell monolayer model is derived from the colon rather than the brain, this model expresses efflux transporters such as P-glycoprotein which are also expressed at the BBB.
Caco-2 permeability assay. Caco-2 cells (ATCC, Manassas, Va.) were cultured in high-glucose DMEM supplemented with 10% FBS and used between passages 30-50. Caco-2 cells were plated on 12-well polyester transwell inserts ([…] pore size) (Coming #3460) at a density of 80,000 cells/cm^2 and grown to 100% confluence (21 days). Filters were rinsed in Hank's balanced salt solution (HBSS) and test compounds (10 μM) were added to either the apical (0.5 mL) or basolateral (1.5 mL) side and incubated at 37° C. with shaking (100 rpm). Samples (200 μL) were removed at 30, 60, and 120 minutes with replacement of an equal volume of the appropriate buffer containing or lacking the compounds. Samples were stored at −20° C. until analysis. After 120 minutes, lucifer yellow was added to the donor chamber, with additional sampling as above at 10, 20, and 30 minutes. Lucifer yellow was analyzed by fluorescence (excitation 450 nm, emission 528 nm) in a Synergy 2 microplate reader. […] Buffer samples (200 μL) were mixed with acetonitrile (100 μL) and acetic acid (2 μL), vortexed and centrifuged at 4° C. for 5 minutes at 12,000 ref. Supernatants (100 μL) were injected onto an Alltech Alltima HP C18 4.6×100 mm 3 μm column and eluted with 38% acetonitrile, 62% aqueous (1% acetic acid in water) at 1.0 mL/min. To improve sensitivity over UV detection, fluorescence (Waters 2475) at the excitation/emission wavelengths of 443/533 and 274/305 (nm) for 1 and 14, respectively, was also detected. Permeability was determined according to Fick's Law. Efflux transport activity was defined as a permeability directional ratio (efflux ratio) ≧2.

Aβ42 monomers = target: T1, Aβ42 monomers (Homo sapiens, UniProt P05067); assay: Fluorescence polarization binding to Aβ42 monomers; conditions: compound 1 μM, 3 hrs, read-out: apparent binding constant (Kd) for Aβ42 monomers
T1 construct: The monomers, oligomers and fibrils of Aβ42 were prepared according to established protocols and confirmed by TEM
Experimental: FIG. 8A-C. BMAOI 14 binds to Aβ42 monomers, oligomers, and fibrils, but not BSA. A. The monomers, oligomers and fibrils of Aβ42 were prepared according to established protocols and confirmed by TEM; B. Compound 14 (1 μM) was incubated with different forms of Aβ42 at indicated concentrations for 3 hrs. Then, fluorescence polarization change of 14 was recorded and the binding affinity was calculated; C. Compound 14 was incubated with BSA as described in B and the binding affinity was calculated.
To determine the binding affinity of 14 to Aβ, we evaluated changes in fluorescence polarization values of this probe at different 14:Aβ ratios for monomeric, oligomeric, and fibrillary Aβ species, respectively. Aβ42 is chosen to evaluate the binding of probe as it is the major and most sticky amyloid peptide found in AD plaques.^1 The formation of different Aβ42 species was confirmed by transmission electron microscope (TEM) as shown in FIG. 8A. […] It appears that 14 binds to Aβ42 with micromolar affinity and slightly favors […] fibrils over monomers and oligomers.

T1 sequence (P05067 672-713 limits assumed): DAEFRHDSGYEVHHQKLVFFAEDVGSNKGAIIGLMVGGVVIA

COc1cc(C=CC(=O)C(Cc2cn(CCCCCCNC(=O)CCNC(=O)CCNC(=O)COC3CCC4(C)C(=CCC5C4CCC4(C)C(C(C)CCCC(C)C)CCC54)C3)nn2)C(=O)C=Cc2ccc(O)c(OC)c2)ccc1O (centres unmarked) [BMAOI 14]
inhibition of the formation of AβOs (Western blot) (AβOs [1]): significantly inhibited | production of extracellular AβOs (ELISA) (extracellular AβOs): inhibited the production of extracellular AβOs | formation of AβOs (A11 immunocytochemistry) (AβOs [2]): significantly inhibited | suppression of intracellular oxidative stress (DCFH-DA fluorescence) [3]: suppressed the intracellular oxidative stress in a dose-depndent manner | Papp A→B at 120 min, 10 µM (in vitro): 7.1 ×10⁻⁶ cm/s | Papp B→A at 120 min, 10 µM (in vitro): 4.7 ×10⁻⁶ cm/s | efflux ratio at 120 min, 10 µM (in vitro): 0.63 | Kd (Aβ42 monomers): 2030 nM
